Usually Ki stands for the dissociation constant of the complex between target and ligand, obtained from inhibition or displacement.

The values below come from patent US20210323913A1, “SIGMA RECEPTOR BINDERS” (BOARD OF REGENTS, THE UNIVERSITY OF TEXAS SYSTEM, priority 2016, published 2021).

Where two headings read alike, the source gives them in different places.

For one assay, the target named is sigma 1 receptor (Homo sapiens, UniProt Q99720). Description: Sigma 1 receptor radioligand competition binding. As to conditions: Table 1, 7-piperazinyl-tetrahydronaphthalene analogs; read-out: Ki (nM) Sig1R. For orientation: Displacement assays read how much labelled ligand stays bound in the presence of the test substance.
For a further assay, the target named is sigma 2 receptor (Homo sapiens, UniProt Q5BJF2). Description: Sigma 2 receptor radioligand competition binding. As to conditions: for Ki ratio Sig1R/Sig2R: Table 1, ratio of Sig1R Ki to Sig2R Ki.
The target of a further assay is T1, 5-HT1A (Homo sapiens, UniProt P08908).
T1 sequence (P08908 1-422): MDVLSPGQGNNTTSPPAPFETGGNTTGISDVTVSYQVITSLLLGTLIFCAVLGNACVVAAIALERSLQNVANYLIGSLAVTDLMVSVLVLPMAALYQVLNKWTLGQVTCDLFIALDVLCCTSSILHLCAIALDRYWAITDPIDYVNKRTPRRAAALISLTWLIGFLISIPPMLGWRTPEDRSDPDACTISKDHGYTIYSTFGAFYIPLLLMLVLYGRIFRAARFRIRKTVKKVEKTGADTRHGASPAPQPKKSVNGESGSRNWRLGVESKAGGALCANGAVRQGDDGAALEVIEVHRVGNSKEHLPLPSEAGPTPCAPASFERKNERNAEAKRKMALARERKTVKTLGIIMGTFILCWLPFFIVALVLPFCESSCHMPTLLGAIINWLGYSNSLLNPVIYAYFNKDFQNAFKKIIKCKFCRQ
Description: Radioligand competition binding, 5-HT1A. Conditions: Table 5; Cheng-Prusoff from best fit IC50.

For the next assay, the target named is 5-HT1B (Homo sapiens, UniProt P28222). Description: Radioligand competition binding, 5-HT1B. As to conditions: Table 5; Cheng-Prusoff from best fit IC50.
Another assay deals with 5-HT1D (Homo sapiens, UniProt P28221). Description: Radioligand competition binding, 5-HT1D. Conditions: Table 5; Cheng-Prusoff from best fit IC50.
In another assay the target is 5-HT2A (Homo sapiens, UniProt P28223). The assay is described as follows: Radioligand competition binding, 5-HT2A. As to conditions: Table 5; Cheng-Prusoff from best fit IC50.
In the next assay the target is 5-HT2B (Homo sapiens, UniProt P41595). Description: Radioligand competition binding, 5-HT2B. Conditions: Table 5; Cheng-Prusoff from best fit IC50.
The target of another assay is 5-HT6 (Homo sapiens, UniProt P50406). Description: Radioligand competition binding, 5-HT6. As to conditions: Table 5; Cheng-Prusoff from best fit IC50.
For the next assay, the target named is 5-HT7 (Homo sapiens, UniProt P34969). The assay is described as follows: Radioligand competition binding, 5-HT7. As to conditions: Table 5; Cheng-Prusoff from best fit IC50.
A further assay concerns the target Beta3 (Homo sapiens, UniProt P13945). The assay is described as follows: Radioligand competition binding, Beta3. As to conditions: Table 5; Cheng-Prusoff from best fit IC50.
The target of the next assay is D1 (Homo sapiens, UniProt P21728). The assay is described as follows: Radioligand competition binding, D1. As to conditions: Table 5; Cheng-Prusoff from best fit IC50; some values marked (AVE).
For a further assay, the target named is D3 (Homo sapiens, UniProt P35462). Description: Radioligand competition binding, D3. Conditions: Table 5; Cheng-Prusoff from best fit IC50; one value marked (AVE).
A further assay deals with T2, D4 (Homo sapiens, UniProt P21917).
T2 sequence (P21917 1-419): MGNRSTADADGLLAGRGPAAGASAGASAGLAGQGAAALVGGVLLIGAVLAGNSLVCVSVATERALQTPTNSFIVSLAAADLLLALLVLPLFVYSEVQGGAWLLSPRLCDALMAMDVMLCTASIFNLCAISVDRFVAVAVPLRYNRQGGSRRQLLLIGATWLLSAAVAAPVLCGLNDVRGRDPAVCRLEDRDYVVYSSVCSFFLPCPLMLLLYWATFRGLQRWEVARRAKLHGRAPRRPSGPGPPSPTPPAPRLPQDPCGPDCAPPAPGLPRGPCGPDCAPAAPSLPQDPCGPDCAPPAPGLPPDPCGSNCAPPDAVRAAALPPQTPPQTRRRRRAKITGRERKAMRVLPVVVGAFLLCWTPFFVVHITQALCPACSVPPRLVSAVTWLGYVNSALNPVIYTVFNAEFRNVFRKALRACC
Description: Radioligand competition binding, D4. Conditions: Table 5; Cheng-Prusoff from best fit IC50.

The target of another assay is H2 (Homo sapiens, UniProt P25021). The assay is described as follows: Radioligand competition binding, H2. Conditions: Table 5; Cheng-Prusoff from best fit IC50.
For another assay, the target named is 5-ht5a (Homo sapiens, UniProt P47898). The assay is described as follows: Radioligand competition binding, 5-ht5a. Conditions: Table 5; Cheng-Prusoff from best fit IC50.
Another assay has as its target Alpha1A (Homo sapiens, UniProt P35348). The assay is described as follows: Radioligand competition binding, Alpha1A. As to conditions: Table 5; Cheng-Prusoff from best fit IC50.
For a further assay, the target named is D2 (Homo sapiens, UniProt P14416). Description: Radioligand competition binding, D2. Conditions: Table 5; Cheng-Prusoff from best fit IC50.
Another assay deals with DAT (Homo sapiens, UniProt Q01959). The assay is described as follows: Radioligand competition binding, DAT. Conditions: Table 5; Cheng-Prusoff from best fit IC50.
The target in the next assay is PBR (UniProt P16257). The assay is described as follows: Radioligand competition binding, PBR. As to conditions: Table 5; Cheng-Prusoff from best fit IC50; one value marked (AVE).
The target in another assay is Alpha2C (Homo sapiens, UniProt P18825). The assay is described as follows: Radioligand competition binding, Alpha2C. Conditions: Table 5; Cheng-Prusoff from best fit IC50.
The target of another assay is H1 (Homo sapiens, UniProt P35367). Description: Radioligand competition binding, H1. As to conditions: Table 5; Cheng-Prusoff from best fit IC50.
A further assay deals with T3, Alpha2A (Homo sapiens, UniProt P08913).
T3 sequence (P08913 1-465): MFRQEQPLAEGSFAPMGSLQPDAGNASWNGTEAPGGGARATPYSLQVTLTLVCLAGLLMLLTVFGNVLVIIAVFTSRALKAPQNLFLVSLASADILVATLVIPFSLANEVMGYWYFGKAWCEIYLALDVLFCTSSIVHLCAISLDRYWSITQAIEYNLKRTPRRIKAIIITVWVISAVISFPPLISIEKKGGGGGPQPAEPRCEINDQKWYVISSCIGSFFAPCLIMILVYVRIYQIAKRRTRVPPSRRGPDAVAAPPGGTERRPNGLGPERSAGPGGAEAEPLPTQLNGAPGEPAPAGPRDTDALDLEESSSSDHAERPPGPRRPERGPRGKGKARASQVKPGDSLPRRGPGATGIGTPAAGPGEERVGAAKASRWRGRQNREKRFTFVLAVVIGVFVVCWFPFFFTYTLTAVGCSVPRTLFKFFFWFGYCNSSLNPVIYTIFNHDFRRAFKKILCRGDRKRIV
Description: Radioligand competition binding, Alpha2A. Conditions: Table 5; Cheng-Prusoff from best fit IC50.

Another assay has as its target D5 (Homo sapiens, UniProt P21918). The assay is described as follows: Radioligand competition binding, D5. Conditions: Table 5; Cheng-Prusoff from best fit IC50.
A further assay deals with T4, 5-HT2C (Homo sapiens, UniProt P28335).
T4 sequence (P28335 33-458): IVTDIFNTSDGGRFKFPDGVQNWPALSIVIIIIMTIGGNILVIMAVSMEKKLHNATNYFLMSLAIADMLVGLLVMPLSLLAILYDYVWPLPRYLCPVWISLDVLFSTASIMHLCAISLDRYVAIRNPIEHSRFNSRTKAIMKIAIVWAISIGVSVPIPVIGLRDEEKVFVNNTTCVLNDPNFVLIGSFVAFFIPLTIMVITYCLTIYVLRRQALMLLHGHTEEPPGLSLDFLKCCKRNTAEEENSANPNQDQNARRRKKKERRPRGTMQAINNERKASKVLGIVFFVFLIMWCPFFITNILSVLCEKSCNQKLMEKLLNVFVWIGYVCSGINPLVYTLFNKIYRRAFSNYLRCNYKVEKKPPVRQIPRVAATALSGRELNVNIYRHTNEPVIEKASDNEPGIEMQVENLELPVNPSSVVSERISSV
The assay is described as follows: Radioligand competition binding, 5-HT2C. Conditions: Table 5; Cheng-Prusoff from best fit IC50.

The target in the next assay is Alpha1D (Homo sapiens, UniProt P25100). Description: Radioligand competition binding, Alpha1D. Conditions: Table 5; Cheng-Prusoff from best fit IC50.
The target in a further assay is H3 (Homo sapiens, UniProt Q9Y5N1). Description: Radioligand competition binding, H3. Conditions: Table 5; Cheng-Prusoff from best fit IC50.
Another assay deals with KOR (Homo sapiens, UniProt P41145). Description: Radioligand competition binding, KOR. Conditions: Table 5; Cheng-Prusoff from best fit IC50; some values marked (AVE).
The next assay has as its target M4 (Homo sapiens, UniProt P08173). Description: Radioligand competition binding, M4. As to conditions: Table 5; Cheng-Prusoff from best fit IC50; one value marked (AVE).
In a further assay the target is M5 (Homo sapiens, UniProt P08912). Description: Radioligand competition binding, M5. Conditions: Table 5; Cheng-Prusoff from best fit IC50.
Setting [1] is: Table 1, 7-piperazinyl-tetrahydronaphthalene analogs, read-out: Ki (nM) Sig2R.
Setting [2] is: Table 5, Cheng-Prusoff from best fit IC50, read-out: Ki Sigma 2.

`CN(C(=O)OCc1ccccc1)C1CCCc2ccc(N3CCN(CCCO)CC3)cc21` (stereo not shown) [MDW-1-177, Benzyl (7-(4-(3-hydroxypropyl)piperazin-1-yl)-1,2,3,4-tetrahydronaphthalen-1-yl)(methyl)carbamate]: the Ki at sigma 1 receptor came to 474 nM; on sigma 2 receptor (setting [1]), 21 nM; on sigma 2 receptor (setting [2]) it was 21 nM; at 5-HT1A, 0.528 µM; at 5-HT1B, 0.261 µM; at 5-HT1D it was 0.136 µM. In addition, the inhibitory constant (Ki) turned out to be 0.632 µM on 5-HT2A; 0.099 µM on 5-HT2B; 1.23 µM on 5-HT6; 0.585 µM on 5-HT7; 8.04 µM on Beta3; 1.35 µM on D1. The Ki at D3 is 0.597 µM; at D4, over 10 µM; at H2 it was 0.291 µM. Further, the “Ki ratio Sig1R/Sig2R” value on sigma 2 receptor came out at 23.

As for `CCCN(C(=O)OCc1ccccc1)C1CCCc2ccc(N3CCN(CCC(=O)OCC)CC3)cc21` (stereo not shown) [MDW-1-191, Ethyl 3-(4-(8-(((benzyloxy)carbonyl)(propyl)amino)-5,6,7,8-tetrahydronaphthalen-2-yl)piperazin-1-yl)propanoate], the Ki at sigma 1 receptor came out at 2360 nM; on sigma 2 receptor (setting [1]), 19 nM; at 5-HT1A, 0.569 µM; on 5-HT1B, 0.441 µM; at 5-HT1D, 1.14 µM; at 5-HT2A, 1.73 µM. Also, the Ki was determined as 0.771 µM at 5-HT2B; 1.53 µM at 5-ht5a; 1.56 µM at 5-HT6; 0.891 µM at 5-HT7; 1.41 µM on Alpha1A; 2.41 µM on D2. Further, the Ki on D3 was 0.315 µM; at D4 it was 1.72 µM; on DAT, over 10 µM; on H2 it was 1.29 µM; on PBR, 1.67 µM. Also, the “Ki ratio Sig1R/Sig2R” value on sigma 2 receptor is recorded as 124.

Take `CN(Cc1cc(Cl)cc(Cl)c1)C1CCCc2ccc(N3CCOCC3)cc21` (stereo not shown) [MDW-1-131, N-(3,5-dichlorobenzyl)-N-methyl-7-morpholino-1,2,3,4-tetrahydronaphthalen-1-amine]: the Ki on sigma 2 receptor (setting [2]) stood at 522 nM; at Alpha2C, 2.54 µM; on D3 it was 3.39 µM; on H1 it was 0.182 µM; at PBR it was 0.902 µM.

For `CCCN1CCN(c2ccc3c(c2)C(N(CCC)C(=O)OCc2ccccc2)CCC3)CC1` (stereo not shown) [MDW-1-196, Benzyl propyl(7-(4-propylpiperazin-1-yl)-1,2,3,4-tetrahydronaphthalen-1-yl)carbamate], the inhibition constant (Ki) was 199 nM on sigma 1 receptor; 9 nM at sigma 2 receptor (setting [1]); 9.4 nM at sigma 2 receptor (setting [2]); 3.8 µM at 5-HT1A; 1.31 µM at 5-HT1B; 1.1 µM on 5-HT1D. For the same molecule, the Ki was 1.28 µM on 5-HT2A; 2.14 µM at 5-HT2B; 1.96 µM on 5-HT6; 1.05 µM at 5-HT7; 0.98 µM on Alpha2A; 1.92 µM at D1. Besides, the Ki was 0.931 µM on D2; 0.177 µM at D3; 2.51 µM at D4; over 10 µM at D5; 1.91 µM at DAT; 1.04 µM on H2. Besides, the “Ki ratio Sig1R/Sig2R” value at sigma 2 receptor turned out to be 22.

With `CN(C(=O)OCc1ccccc1)C1CCCc2ccc(N3CCN(C4CCCC4)CC3)cc21` (stereo not shown) [MDW-1-140, Benzyl (7-(4-cyclopentylpiperazin-1-yl)-1,2,3,4-tetrahydronaphthalen-1-yl)(methyl)carbamate], the Ki turned out to be 86 nM at sigma 1 receptor; 2 nM at sigma 2 receptor (setting [1]); 2.1 nM at sigma 2 receptor (setting [2]); 0.367 µM on 5-HT1A; 0.509 µM at 5-HT1D; 0.547 µM at 5-HT2A. Further, the Ki amounted to 0.263 µM at 5-HT2B; 1.46 µM at 5-HT2C; 2.5 µM at 5-ht5a; 1.02 µM at 5-HT6; 1.48 µM at 5-HT7; 1.81 µM on Alpha1D. Further, the Ki amounted to 1.11 µM on Alpha2A; 0.457 µM at D1; 0.462 µM at D3; 2.6 µM on D5; 0.028 µM on H1; 0.211 µM on H2. In addition, the Ki on H3 is 0.965 µM; on KOR it was at least 10 µM; at M4, 2.98 µM; at M5 it was 3.69 µM; at PBR it was 4.06 µM. Besides, the “Ki ratio Sig1R/Sig2R” value at sigma 2 receptor amounted to 41.
